One compound from publication PMC11842588, “A first-in-class selective inhibitor of ERK1/2 and ERK5 overcomes drug resistance with a single-molecule strategy” (Signal Transduction and Targeted Therapy, 2025) can be followed below.

One data set concerns the target ERK1 (Homo sapiens, UniProt P27361). Description: ADP-Glo kinase assay. It is filed as biochemical. The protocol:
(§1) The full-length human ERK1 or ERK2 with His-tag was cloned into a pET28a vector. hERK1/2 were expressed in Escherichia coli BL21(DE3), and then were purified using sequential Ni-NTA and Superdex 200 column steps. The SEC purified sample was then concentrated to 10 mg/ml and stored at −80 °C with buffer containing 20 mM HEPES pH 7.5, 150 mM NaCl. ERK5 (residues 48–395) containing His and GST tags was cloned into the pFastBac vector, and the recombinant plasmid was extracted. The recombinant plasmid was transformed into the DH10bac strain, and monoclonal was selected for culture. The recombinant Bacmid was then extracted according to the instructions of the Baculovirus Shuttle Vector Bacmid Mini Preparation Kit (Beyotime) and validated by PCR. 1 × 10^6/well Sf9 cells were counted for transfection and then amplified to obtain P3 ERK5 recombinant baculovirus. It was added to 2 × 10^6/mL Sf9 cells and incubated at 27 °C for 72 h on a shaker to express ERK5. Cells were lysed and supernatant was collected on a Ni-NTA for purification, and a 250 mM imidazole eluate was collected. Next, digestion by TEV protease was performed overnight while dialysis was performed in approximately 1000 mL of imidazole-free buffer. The digested ERK5 protein was sequentially purified on the Ni-NTA and GST-tag Purification Resin, followed by size exclusion chromatography on a Superdex 75 column. ERK5 protein was collected and concentrated to 12 mg/ml and stored at −80 °C in buffer containing 50 mM HEPES pH 8.0, 200 mM NaCl, 10% (v/v) glycerol.
(§2) ERK1/2/5 kinase activity assay was conducted using ADP-Glo™ Kinase Assay. 2× ATP solution and 2× kinase & Metal solution were prepared using assay buffer were prepared using assay buffer containing 50 mM Hepes pH 7.5, 10 mM MgCl2; 0.01% Brij35, 1 mM EGTA, 2 mM DTT. Transfer 40 nL compounds to 384 assay plate. Add 2 μL of 2× kinase & Metal solution were mixed and incubated in a 384-assay plate for 10 min at 25 °C. 2 μL of 2×ATP solution was added and incubated at 25 °C for 60 min. And then, each well was supplemented with 4 µL of ADP-Glo^TM reagent and incubated at 25 °C for 40 min. Subsequently, 8 µL of Kinase Detection Reagent was added and incubated at 25 °C for 40 min. Finally, the luminescence signals were recorded. The IC50 values were calculated using GraphPad Prism 9.5 software.
(In general: ADP-Glo turns the ADP formed in a reaction into a luminescent signal.)

For the next data set, the target named is ERK2 (Homo sapiens, UniProt P28482). As to the kind of experiment: ADP-Glo kinase assay. In kind it is biochemical. The protocol:
as §1, §2

The next data set has as its target ERK5 (Homo sapiens, UniProt Q13164). Description: ADP-Glo kinase assay. It is filed as biochemical. As for the experimental part: as §1, §2
Data set [1] can be described thus: Liver microsome metabolic stability. In kind it is in vitro ADME. As for the experimental part: An appropriate amount of SD rat and human liver microsomal solution was incubated at 37 °C with a specified concentration of candidate compounds for 5 min, and then NADPH reaction system was added to initiate metabolic reaction. The reaction was terminated at a series of time points by adding acetonitrile solution containing an internal standard compound. Centrifuge at 12,000 rpm for 20 min, take the supernatant solution, and place it in a vacuum centrifuge to dry. After acetonitrile was dissolved, the supernatant solution was centrifugated, and the remaining compounds were quantified by LC-MS to evaluate the metabolic stability of liver microsomes.
On the technique in general: Microsomes from liver hold many membrane-bound enzymes, among them those of drug oxidation.

Another data set relates to 380 kinases. Description: Kinase profiling, whole panel. It is filed as biochemical, human. The following applies: 1 µM, panel of 380 kinases. As for the experimental part:
380 kinases inhibitory activities of SKLB-D18 were conducted by Eurofins Cerep SA. The result was illustrated by kinase tree (http://www.kinhub.org/kinmap/).

The nature of data set [2]: H&E staining of major organs. It is filed as in vivo. To be noted: xenograft study, heart, liver, spleen, lung, kidney. As for the experimental part:
All procedures were performed in accordance with the Laboratory Animals Welfare Act, the Guide for the Care and Use of Laboratory Animals and the Guidelines and Policies. The rodent experiment was approved by IACUC (Institutional Animal Care and Use Committee) in the Experimental Animal Ethics Committee of West China Hospital (Approval No. 2021672A). 48 female nude mice (BALB/c-nu, 5 weeks, 15–18 g, purchased from Beijing HFK Bio-Technology Co., LTD) were acclimatized for one week in an SPF-grade animal facility (ventilated, 20–25 °C, 50–60% humidity). […] When the tumor volume reached approximately 100 mm^3 (V = L × W^2/2), the mice were randomly divided into six groups (n = 8 per group): (1) Control group (normal saline); (2) 25 mg/kg SKLB-D18-treated group; (3) 50 mg/kg SKLB-D18-treated group; (4) 50 mg/kg BVD-523-treated group; (5) 50 mg/kg XMD8-92-treated group; (6) BVD-523 (50 mg/kg) and XMD8-92 (50 mg/kg) combined treatment group. Drugs were freshly prepared with 5% DMSO, 10% Solutol HS-15, and 85% normal saline on the day of administration. Intragastric administration occurred once daily at the same time for 16 consecutive days. And the body weight and tumor volume of mice were measured every three days. […]
First, the fixed major organs of nude mice were dehydrated, embedded, and sectioned. […] Staining results and tissue morphology were analyzed under a microscope.

Chain of ERK1 (P27361 whole entry, the tested form may be a part): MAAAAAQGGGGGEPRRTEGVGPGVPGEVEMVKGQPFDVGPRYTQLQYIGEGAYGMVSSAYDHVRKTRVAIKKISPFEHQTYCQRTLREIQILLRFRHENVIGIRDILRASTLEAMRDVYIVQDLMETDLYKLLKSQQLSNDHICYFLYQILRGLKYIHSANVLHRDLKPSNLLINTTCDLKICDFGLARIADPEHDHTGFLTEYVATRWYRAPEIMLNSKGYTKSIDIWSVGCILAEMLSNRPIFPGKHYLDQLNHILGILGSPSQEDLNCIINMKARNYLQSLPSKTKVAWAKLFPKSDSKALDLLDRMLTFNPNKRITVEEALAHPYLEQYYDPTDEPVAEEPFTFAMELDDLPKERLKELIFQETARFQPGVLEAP
Chain of ERK2 (P28482 whole entry): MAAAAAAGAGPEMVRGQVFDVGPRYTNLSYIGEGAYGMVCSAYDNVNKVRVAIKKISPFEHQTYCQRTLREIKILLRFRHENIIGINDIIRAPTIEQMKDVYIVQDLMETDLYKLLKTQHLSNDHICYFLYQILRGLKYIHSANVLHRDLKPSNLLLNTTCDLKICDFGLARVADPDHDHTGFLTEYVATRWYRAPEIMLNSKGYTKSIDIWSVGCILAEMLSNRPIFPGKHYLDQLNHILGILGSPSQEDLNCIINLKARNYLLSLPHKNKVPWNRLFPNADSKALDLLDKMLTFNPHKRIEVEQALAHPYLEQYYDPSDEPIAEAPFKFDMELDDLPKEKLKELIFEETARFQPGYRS
Chain of ERK5 (Q13164 whole entry): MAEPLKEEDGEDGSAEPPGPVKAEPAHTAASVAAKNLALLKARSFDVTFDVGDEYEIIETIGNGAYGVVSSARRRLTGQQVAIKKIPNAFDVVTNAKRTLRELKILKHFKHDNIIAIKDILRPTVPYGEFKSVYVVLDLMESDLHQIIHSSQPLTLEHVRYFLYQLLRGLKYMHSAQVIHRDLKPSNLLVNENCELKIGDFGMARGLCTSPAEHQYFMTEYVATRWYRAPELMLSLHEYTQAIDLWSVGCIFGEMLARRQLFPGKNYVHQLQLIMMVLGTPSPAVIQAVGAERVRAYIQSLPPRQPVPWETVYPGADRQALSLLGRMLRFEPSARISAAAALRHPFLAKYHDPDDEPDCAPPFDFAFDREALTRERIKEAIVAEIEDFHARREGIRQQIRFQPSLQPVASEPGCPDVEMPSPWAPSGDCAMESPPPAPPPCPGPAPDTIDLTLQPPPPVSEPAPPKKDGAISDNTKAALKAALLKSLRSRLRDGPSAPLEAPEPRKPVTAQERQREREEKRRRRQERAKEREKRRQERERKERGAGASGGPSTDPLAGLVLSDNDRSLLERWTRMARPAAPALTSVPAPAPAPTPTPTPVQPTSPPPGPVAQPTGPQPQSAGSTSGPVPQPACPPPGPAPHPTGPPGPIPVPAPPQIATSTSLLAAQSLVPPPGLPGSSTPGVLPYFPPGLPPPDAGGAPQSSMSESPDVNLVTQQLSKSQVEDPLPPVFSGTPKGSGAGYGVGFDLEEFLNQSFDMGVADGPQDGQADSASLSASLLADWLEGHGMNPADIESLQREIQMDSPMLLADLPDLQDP

A word on the IC50: it is the midpoint of a concentration-inhibition curve. Usually microsomal CLint stands for the capacity of the preparation to metabolise the compound, expressed as a volume cleared per time. High values mean rapid turnover, low ones slow turnover. A word on the half-life: it is the time in which the quantity being followed falls by half. Read a low half-life as fast loss. On to `CN(C)Cc1cccc(Nc2ncc(Cl)c(-c3csc(C(=O)NN4CCOCC4)c3)n2)c1` [SKLB-D18, 4-(5-chloro-2-((3-((dimethylamino)methyl)phenyl)amino)pyrimidin-4-yl)-N-morpholinothiophene-2-carboxamide], for which the IC50 on ERK1 (ADP-Glo) came to 38.7 ± 0.62 nM; on ERK2 (ADP-Glo), 40.1 ± 0.95 nM; against ERK5 (ADP-Glo), 59.7 ± 1.21 nM. Besides, the inhibition at 0.5 µM on ERK1 (read-out: Enzyme inhibitory activity (500 nM, %) ERK1) stood at 95.62 ± 0.84%; at ERK2 (read-out: Enzyme inhibitory activity (500 nM, %) ERK2) it was 93.2 ± 1.45%; on ERK5 (read-out: Enzyme inhibitory activity (500 nM, %) ERK5) it was 93.1 ± 1.03%. Besides, the “Residual rate (%)” value in data set [1] (SD rat liver microsomes) was 25.8%; in data set [1] (human liver microsomes), 69.42%. In addition, in data set [1] (SD rat liver microsomes), the “T1/2” value was 32.51 min. The microsomal CLint in data set [1] (SD rat liver microsomes) was determined as 42.6 µL/min/mg; in data set [1] (human liver microsomes), 15.1 µL/min/mg. Moreover, the half-life stood at 32.5 min in data set [1] (SD, rat, liver microsomes) and 91.6 min in data set [1] (human liver microsomes). Moreover, the “number of protein kinases outside of ERK1/2/5 inhibited by >70%” value in the data set with 380 kinases was determined as 8. The “toxicity to major organs (H&E staining)” value in data set [2] is on record as “no significant toxicity”.
